{"source": "paper PMC6225228", "about": "“Design, Synthesis and Evaluation of N-pyrazinylbenzamides as Potential Antimycobacterial Agents” (Molecules : A Journal of Synthetic Chemistry and Natural …, 2018)", "key": {"[1]": {"tested_on": "Candida albicans ATCC 44859", "assay": "Antifungal microdilution broth, CA", "assay_type": "cell-based", "conditions": "Candida albicans, read-out: MIC CA"}, "[2]": {"tested_on": "Lichtheimia corymbifera 272", "assay": "Antifungal microdilution broth, LC", "assay_type": "cell-based", "conditions": "read-out: MIC LC"}, "[3]": {"tested_on": "Enterococcus sp. J 14365/08", "assay": "Antibacterial microdilution broth, EF", "assay_type": "cell-based", "conditions": "Enterococcus, read-out: MIC EF"}, "Candida krusei E28": {"tested_on": "Candida krusei E28", "assay": "Antifungal microdilution broth, CK", "assay_type": "cell-based", "conditions": "Pichia kudriavzevii, read-out: MIC CK"}, "[4]": {"tested_on": "Staphylococcus epidermidis H 6966/08", "assay": "Antibacterial microdilution broth, SE", "assay_type": "cell-based", "conditions": "Staphylococcus epidermidis, read-out: MIC SE"}, "[5]": {"tested_on": "Escherichia coli CCM 4517", "assay": "Antibacterial microdilution broth, EC", "assay_type": "cell-based", "conditions": "Escherichia coli, read-out: MIC EC"}, "[6]": {"tested_on": "Aspergillus fumigatus 231", "assay": "Antifungal microdilution broth, AF", "assay_type": "cell-based", "conditions": "read-out: MIC AF"}, "[7]": {"tested_on": "Pseudomonas aeruginosa CCM 1961", "assay": "Antibacterial microdilution broth, PA", "assay_type": "cell-based", "conditions": "Pseudomonas aeruginosa, read-out: MIC PA"}, "[8]": {"tested_on": "M. kansasii CNCTC My 235/80 (ATCC 12478)", "assay": "Antimycobacterial microdilution MABA, M. kansasii", "assay_type": "cell-based, Mycobacterium kansasii", "conditions": "Mycobacterium kansasii, ATCC12478, pH 6.6, read-out: M. kans. ATCC 12478 MIC, Middlebrook 7H9 with OADC, pH 6.6, MABA"}, "Candida tropicalis 156": {"tested_on": "Candida tropicalis 156", "assay": "Antifungal microdilution broth, CT", "assay_type": "cell-based", "conditions": "read-out: MIC CT"}, "Candida glabrata 20/I": {"tested_on": "Candida glabrata 20/I", "assay": "Antifungal microdilution broth, CG", "assay_type": "cell-based", "conditions": "Nakaseomyces glabratus, 20/I, read-out: MIC CG"}, "[9]": {"tested_on": "Staphylococcus aureus H 5996/08 methicillin resistant", "assay": "microbe, parasite or virus in culture", "assay_type": "cell-based", "conditions": "Staphylococcus aureus, MRSA, read-out: MIC MRSA"}, "[10]": {"tested_on": "Staphylococcus aureus CCM 4516/08", "assay": "Antibacterial microdilution broth, SA", "assay_type": "cell-based", "conditions": "Staphylococcus aureus"}, "Trichosporon asahii 1188": {"tested_on": "Trichosporon asahii 1188", "assay": "Antifungal microdilution broth, TA", "assay_type": "cell-based", "conditions": "read-out: MIC TA"}, "[11]": {"tested_on": "M. avium ssp. avium CNCTC My 80/72 (ATCC 15769)", "assay": "Antimycobacterial microdilution MABA, M. avium", "assay_type": "cell-based, Mycobacterium avium", "conditions": "Mycobacterium avium, ATCC15769, pH 6.6, read-out: M. avium ATCC 15769 MIC"}, "[12]": {"tested_on": "Mycobacterium tuberculosis H37Rv CNCTC My 331/88 (ATCC 27294)", "assay": "Antimycobacterial microdilution MABA, M. tuberculosis", "assay_type": "cell-based", "conditions": "for MIC: Mycobacterium tuberculosis, read-out: Mtb H37Rv ATCC 27294 MIC, Middlebrook 7H9 with OADC growth supplement, pH = 6.6, MABA"}, "[13]": {"tested_on": "Trichophyton interdigitale 445", "assay": "Antifungal microdilution broth, TI", "assay_type": "cell-based", "conditions": "read-out: MIC TI"}, "[14]": {"tested_on": "Mycobacterium smegmatis CCM 4622 (ATCC 607)", "assay": "Antimycobacterial microdilution, M. smegmatis", "assay_type": "cell-based", "conditions": "Mycolicibacterium smegmatis, read-out: M. smeg. ATCC 607 MIC"}, "[15]": {"conditions": "Lichtheimia corymbifera, 272, 24 h"}, "[16]": {"conditions": "Lichtheimia corymbifera, 272, 48 h"}, "[17]": {"conditions": "Aspergillus fumigatus, 231, 24 h"}, "[18]": {"conditions": "Aspergillus fumigatus, 231, 48 h"}, "[19]": {"conditions": "CCM4516, 24 h, read-out: MIC SA, 24 h"}, "[20]": {"conditions": "CCM4516, 48 h, read-out: MIC SA, 48 h"}, "[21]": {"conditions": "CCM4516, read-out: MIC against S. aureus, time not stated"}, "[22]": {"conditions": "Trichosporon asahii, 1188, 24 h"}, "[23]": {"conditions": "Trichosporon asahii, 1188, 48 h"}, "[24]": {"conditions": "Trichophyton interdigitale, 445, 72 h"}, "[25]": {"conditions": "Trichophyton interdigitale, 445, 120 h"}}, "note": "Where two headings read alike, the source gives them in different places.", "data": [{"smiles": "O=C(Nc1cnc(Cl)cn1)c1cccc(Cl)c1", "note": "[Compound 2k]", "values": [{"measurement": "MIC", "setting": "[1]; ATCC44859, 24 h", "result": "> 125", "unit": "µM"}, {"measurement": "MIC", "setting": "[1]; ATCC44859, 48 h", "result": "> 125", "unit": "µM"}, {"measurement": "MIC", "setting": "[2]; [15]", "result": "> 125", "unit": "µM"}, {"measurement": "MIC", "setting": "[2]; [16]", "result": "> 125", "unit": "µM"}, {"measurement": "MIC", "setting": "[3]; SP.J14365/08, 24 h", "result": "> 125", "unit": "µM"}, {"measurement": "MIC", "setting": "[3]; SP.J14365/08, 48 h", "result": "> 125", "unit": "µM"}, {"measurement": "MIC", "setting": "Candida krusei E28; E28, 24 h", "result": "> 125", "unit": "µM"}, {"measurement": "MIC", "setting": "Candida krusei E28; E28, 48 h", "result": "> 125", "unit": "µM"}, {"measurement": "MIC", "setting": "[4]; H6966/08, 24 h", "result": "> 125", "unit": "µM"}, {"measurement": "MIC", "setting": "[4]; H6966/08, 48 h", "result": "> 125", "unit": "µM"}, {"measurement": "melting point", "result": "150.7 to 151.9", "unit": "°C"}, {"measurement": "MIC", "setting": "[5]; CCM4517, 24 h", "result": "> 125", "unit": "µM"}, {"measurement": "MIC", "setting": "[5]; CCM4517, 48 h", "result": "> 125", "unit": "µM"}, {"measurement": "MIC", "setting": "[6]; [17]", "result": "> 125", "unit": "µM"}, {"measurement": "MIC", "setting": "[6]; [18]", "result": "> 125", "unit": "µM"}, {"measurement": "MIC", "setting": "[7]; CCM1961, 72 h", "result": "> 125", "unit": "µM"}, {"measurement": "MIC", "setting": "[7]; CCM1961, 120 h", "result": "> 125", "unit": "µM"}, {"measurement": "MIC", "setting": "[8]", "result": "> 100", "unit": "µg/mL"}, {"measurement": "MIC", "setting": "Candida tropicalis 156; Candida tropicalis, 156, 24 h", "result": "> 125", "unit": "µM"}, {"measurement": "MIC", "setting": "Candida tropicalis 156; Candida tropicalis, 156, 48 h", "result": "> 125", "unit": "µM"}, {"measurement": "MIC", "setting": "Candida glabrata 20/I; 24 h", "result": "> 125", "unit": "µM"}, {"measurement": "MIC", "setting": "Candida glabrata 20/I; 48 h", "result": "> 125", "unit": "µM"}, {"measurement": "MIC", "setting": "[9]; 24 h", "result": "> 125", "unit": "µM"}, {"measurement": "MIC", "setting": "[9]; 48 h", "result": "> 125", "unit": "µM"}, {"measurement": "MIC", "setting": "[10]; [19]", "result": "> 125", "unit": "µM"}, {"measurement": "MIC", "setting": "[10]; [20]", "result": "> 125", "unit": "µM"}, {"measurement": "MIC", "setting": "[10]; [21]", "result": "> 125", "unit": "µM"}, {"measurement": "MIC", "setting": "Trichosporon asahii 1188; [22]", "result": "> 125", "unit": "µM"}, {"measurement": "MIC", "setting": "Trichosporon asahii 1188; [23]", "result": "> 125", "unit": "µM"}, {"measurement": "MIC", "setting": "[11]", "result": "> 100", "unit": "µg/mL"}, {"measurement": "Mtb H37Rv ATCC 27294 MIC", "setting": "[12]; Middlebrook 7H9 with OADC growth supplement, pH = 6.6, MABA", "result": ">100", "unit": "µg/mL"}, {"measurement": "MIC", "setting": "[12]", "result": "> 100", "unit": "µg/mL"}, {"measurement": "MIC", "setting": "[13]; [24]", "result": "> 125", "unit": "µM"}, {"measurement": "MIC", "setting": "[13]; [25]", "result": "> 125", "unit": "µM"}, {"measurement": "MIC", "setting": "[14]", "result": "≥ 500", "unit": "µg/mL"}]}, {"smiles": "O=C(Nc1cnc(Cl)cn1)c1ccc(Cl)cc1", "note": "[Compound 2l]", "values": [{"measurement": "MIC", "setting": "[1]; ATCC44859, 24 h", "result": "> 125", "unit": "µM"}, {"measurement": "MIC", "setting": "[1]; ATCC44859, 48 h", "result": "> 125", "unit": "µM"}, {"measurement": "MIC", "setting": "[2]; [15]", "result": "> 125", "unit": "µM"}, {"measurement": "MIC", "setting": "[2]; [16]", "result": "> 125", "unit": "µM"}, {"measurement": "MIC", "setting": "[3]; SP.J14365/08, 24 h", "result": "> 125", "unit": "µM"}, {"measurement": "MIC", "setting": "[3]; SP.J14365/08, 48 h", "result": "> 125", "unit": "µM"}, {"measurement": "MIC", "setting": "Candida krusei E28; E28, 24 h", "result": "> 125", "unit": "µM"}, {"measurement": "MIC", "setting": "Candida krusei E28; E28, 48 h", "result": "> 125", "unit": "µM"}, {"measurement": "MIC", "setting": "[4]; H6966/08, 24 h", "result": "> 125", "unit": "µM"}, {"measurement": "MIC", "setting": "[4]; H6966/08, 48 h", "result": "> 125", "unit": "µM"}, {"measurement": "melting point", "result": "225 to 226.3", "unit": "°C"}, {"measurement": "MIC", "setting": "[5]; CCM4517, 24 h", "result": "> 125", "unit": "µM"}, {"measurement": "MIC", "setting": "[5]; CCM4517, 48 h", "result": "> 125", "unit": "µM"}, {"measurement": "MIC", "setting": "[6]; [17]", "result": "> 125", "unit": "µM"}, {"measurement": "MIC", "setting": "[6]; [18]", "result": "> 125", "unit": "µM"}, {"measurement": "MIC", "setting": "[7]; CCM1961, 72 h", "result": "> 125", "unit": "µM"}, {"measurement": "MIC", "setting": "[7]; CCM1961, 120 h", "result": "> 125", "unit": "µM"}, {"measurement": "MIC", "setting": "[8]", "result": "> 100", "unit": "µg/mL"}, {"measurement": "MIC", "setting": "Candida tropicalis 156; Candida tropicalis, 156, 24 h", "result": "> 125", "unit": "µM"}, {"measurement": "MIC", "setting": "Candida tropicalis 156; Candida tropicalis, 156, 48 h", "result": "> 125", "unit": "µM"}, {"measurement": "MIC", "setting": "Candida glabrata 20/I; 24 h", "result": "> 125", "unit": "µM"}, {"measurement": "MIC", "setting": "Candida glabrata 20/I; 48 h", "result": "> 125", "unit": "µM"}, {"measurement": "MIC", "setting": "[9]; 24 h", "result": "> 125", "unit": "µM"}, {"measurement": "MIC", "setting": "[9]; 48 h", "result": "> 125", "unit": "µM"}, {"measurement": "MIC", "setting": "[10]; [19]", "result": "> 125", "unit": "µM"}, {"measurement": "MIC", "setting": "[10]; [20]", "result": "> 125", "unit": "µM"}, {"measurement": "MIC", "setting": "[10]; [21]", "result": "> 125", "unit": "µM"}, {"measurement": "MIC", "setting": "Trichosporon asahii 1188; [22]", "result": "> 125", "unit": "µM"}, {"measurement": "MIC", "setting": "Trichosporon asahii 1188; [23]", "result": "> 125", "unit": "µM"}, {"measurement": "MIC", "setting": "[11]", "result": "> 100", "unit": "µg/mL"}, {"measurement": "MIC", "setting": "[12]", "result": "> 100", "unit": "µg/mL"}, {"measurement": "MIC", "setting": "[13]; [24]", "result": "> 125", "unit": "µM"}, {"measurement": "MIC", "setting": "[13]; [25]", "result": "> 125", "unit": "µM"}, {"measurement": "MIC", "setting": "[14]", "result": "≥ 500", "unit": "µg/mL"}]}]}
